Measurements taken from patent US20240197874A1, “MATERIALS AND METHODS FOR IMPROVING EFFICACY OF ADOPTIVE IMMUNE CELL THERAPY” (priority 2021, published 2024).

Assays:
[1] = test system: mTORC1; assay: Endosome isolation and in vitro mTORC1 kinase activity assay toward S6K1; type: biochemical, human; conditions: cells pre-treated 2 hours with 1 μM inhibitor; day 3
[2] = test system: Naïve CD4 T cells; assay: Percentage of live cells (Annexin V negative) of activated naïve CD4 T cells with increasing inhibitor doses; type: cell-based, human; conditions: for toxicity of doses used for lysosome inhibition: chloroquine 20 μM, Bafilomycin A1 10 nM
Description: FIGS. 2A-2H. Naïve CD4 T cells from old adults lose lysosomal function but maintain mTORC1 activity after activation on day 5. (FIG. 2A and FIG. 2B) Naïve CD4 T cells from young and old individuals were activated with anti-CD3/anti-CD28 beads for 5 days followed by DQBSA treatments for 6 hours. Fluorescence of cleaved DQ-BSA was analyzed by flow cytometry to determine lysosome activities (FIG. 2A). Phospho-S6K1 (Thr389) protein expression (right) was determined by Western blotting (FIG. 2B). (FIG. 2C) Naïve CD4 T cells were activated for 5 days in the presence of increasing doses of chloroquine (CQ), bafilomycin A1 (BafA1) or JPH203. The percentage of live cells was determined as the frequency of Annexin V negative population. Mean+SD of four experiments. (FIGS. 2D-2G) Naïve CD4 T cells were activated for 5 days with the last 2-day culture with vehicle, chloroquine (CQ) or bafilomycin A1 (BafA1). Alternatively, cells were transfected with control or TFEB siRNA and activated for 5 days. (FIG. 2D) Lysosomal activities were determined as in (FIG. 2A). (FIG. 2E) mTORC1 activity was determined as in (FIG. 2B). (FIG. 2F) TFEB protein silencing were confirmed by Western blotting on day 5 after activation. (FIG. 2G) AKT phosphorylation was determined by Western blotting on day 5 after activation. **p<0.01; NS, not significant. (FIG. 2H) Naïve CD4 T cells from three old individuals were activated and treated with CQ as in (FIG. 2D). SLC7A5 and c-MYC protein expression were determined. Comparison by two-tailed paired t test. *p<0.05, **p<0.01; NS, not significant.
Isolated human naïve CD4 T cells were activated with Dynabeads Human T-Activator CD3/CD28 (11132D, Thermo Fisher Scientific) in RPMI 1640 (Sigma) supplemented with 10% fetal bovine serum (FBS) and 100 U/mL penicillin and streptomycin (Thermo Fisher Scientific). Mouse T cells were activated in plates coated with 8 μg/mL anti-CD3 Ab (16-0032-82, eBioscience) and 8 μg/mL anti-CD28 Ab (16-0281-82, eBioscience) in culture medium supplemented with 10 ng/ml IL-2 (21212, Peprotech). […]

[3] = test system: mTORC1; type: cell-based, human; conditions: for S6K1 phosphorylation (mTORC1 activity) under lysosome inhibition: young individuals, day 5, last 2 days with inhibitor
[4] = test system: Naïve CD4 T cells; assay: DQ-BSA lysosomal activity assay in activated naïve CD4 T cells; type: cell-based, human
Description: Cells were treated with 5 μg/mL of DQ-BSA (D12050, Thermo Fisher Scientific) diluted in prewarmed medium and incubated at 37° ° C. for 6 hours. Cells were then briefly washed once with ice-cold PBS containing 2% FBS and kept on ice. Fluorescence of cleaved BSA-DQ was analyzed by flow cytometry.

[5] = test system: lysosomal cathepsin genes (CTSB, CTSD, CTSH and CTSS); assay: Lysosomal cathepsin gene expression by qRT-PCR; type: cell-based, human
Description: FIGS. 6A-6F. Sustained activation of late endosomal mTORC1 suppresses lysosomal activities in naïve CD4 T cell responses. (FIGS. 6A-6F) Naïve CD4 T cells from young (Y) and old (O) individuals were activated for 5 days. Indicated inhibitor or vehicle control was added for the last 2 days of culture (FIGS. 6A-6B and FIGS. 6E-6F). Alternatively, cells were transfected with control or VPS39 siRNA and then activated with anti-CD3/anti-CD28 beads for 5 days (FIGS. 6C-6D). (FIG. 6A, FIG. 6C, FIG. 6E, and FIG. 6F) Lysosomal cathepsins expressions were determined by qRT-PCR (left); results are normalized to control samples using 18S rRNA as internal control; mean+SD of four experiments; comparison by two-tailed paired t-test. Lysosomal activities were determined by flow cytometry-based analysis of cells treated with 5 μg/mL of DQ-BSA for 6 hours. Results are shown as representative histograms (middle) and cumulative data from four experiments (right, two-tailed paired t-test). The gray histogram represents DQ-BSA free samples. […]
Total RNA was isolated using the RNeasy Plus Mini Kit (74134, QIAGEN) and converted to cDNA using the SuperScript VILO cDNA Synthesis Kit (11754, Invitrogen). Quantitative RT-PCR was performed on the ABI 7900HT system (Applied Biosystems) using Power SYBR Green PCR Master Mix (4368706, Thermo Fisher Scientific), according to the manufacturer's instructions.

[6] = test system: PD-1; type: cell-based, human; conditions: T cells from old adults; day 5
[7] = young individuals, day 5, last 2 days with inhibitor
[8] = CQ and JPH203-cotreated young cells vs CQ alone
[9] = day 5-activated T cells from old adults

Cl.Cl.NC1(c2ccc(-c3nc4ccn5c(=O)[nH]nc5c4cc3-c3ccccc3)cc2)CCC1 [AKT inhibitor, MK-2206 2HCl]
mTORC1 kinase activity of endosome isolates toward the substrate S6K1 [1]: not seen

CO/C1=C\C(C)=C\[C@@H](C)[C@@H](O)[C@@H](C)C/C(C)=C/C=C/[C@H](OC)[C@@H]([C@@H](C)[C@@H](O)[C@H](C)[C@@]2(O)C[C@@H](O)[C@H](C)[C@@H](C(C)C)O2)OC1=O [Bafilomycin A1]
toxicity of doses used for lysosome inhibition [2]: nontoxic
S6K1 phosphorylation (mTORC1 activity) under lysosome inhibition [3]: neither reduced S6K1
lysosomal activities [4, 7]: reduced lysosomal activities

Nc1cc(COc2c(Cl)cc(C[C@H](N)C(=O)O)cc2Cl)c2oc(-c3ccccc3)nc2c1 [JPH203]
cytotoxicity (percentage of live cells, Annexin V negative) ([2]; 5 μM, titration experiments, activated naïve CD4 T cells): not cytotoxic
inhibition of mTORC1 activity ([3]; 5 μM, phosphorylation of S6RP, titration experiments): about 50%
mTORC1 activity on day 3 ([3]; day 3 after activation, young and old cells, 5 μM): reduced mTORC1 activity in both young and old cells
excess mTORC1 activity on day 5 in old activated T cells ([3]; day 5, old adults, inhibitor for last 2 days, 5 μM): sensitive to SLC7A5 inhibition
lysosomal activities [4, 8]: increased
lysosomal cathepsins [5, 8]: increased

CCC(=O)N1CCN(c2ccc(-n3c(=O)ccc4cnc5ccc(-c6cnc7ccccc7c6)cc5c43)cc2C(F)(F)F)CC1 [Torin 1]
lysosomal proteolytic activities [4, 9]: partially restored
TFEB-dependent transcription of lysosomal cathepsin genes [5, 9]: partially restored
cell surface protein expression of PD-1 [6]: reduced cell surface protein expression
transcripts of PD-1 [6]: without effects on transcripts

CCN(CC)CCCC(C)Nc1ccnc2cc(Cl)ccc12 (centres unmarked) [chloroquine, Chloroquine]
toxicity of doses used for lysosome inhibition [2]: nontoxic
S6K1 phosphorylation (mTORC1 activity) under lysosome inhibition [3]: neither reduced S6K1
lysosomal activities [4, 7]: reduced lysosomal activities
